Reference: patent publication US12251382B2, “Substituted amino-pyrimidine compound for use in a method for treatment and prevention of multiple sclerosis” (Merck Patent GmbH, priority 2018, dated 2025)
“Also recorded” adds a separate entry of the source. Where two headings read alike, the source gives them in different places.

Assays:
[1] = for Overall safety and tolerability: single doses 25-500 mg, multiple doses 25-200 mg for 14 days
Method: A randomized, double-blind, placebo-controlled trial conducted in healthy volunteers. […] Written informed consent was obtained from all participants.
Following completion of each dose cohort in both parts of the study, a safety monitoring committee (SMC) decided whether protocol-defined dose escalation to the next level was appropriate to a maximum of 500 mg in Part 1, or to the highest safe and tolerated dose or highest dose from Part 1 in Part 2, based on all safety data and other available data (including PK and PD data). […] Other safety data (e.g., hematology parameters) were also taken into consideration for dose escalation decisions as a matter of course.
TEAEs and SAEs were recorded from time of informed consent until study completion. […] Assessment of severity considered the Toxicity Grading Scale for Healthy Adult and Adolescent Volunteers Enrolled in Preventative Vaccine Clinical Trials. Data were summarized using descriptive statistics.

[2] = tested on: BCR- and FcR-mediated signalling; conditions: variety of human cellular assays; cited from earlier work
[3] = Part 1, pooled active, listed as evobrutinib

## C=CC(=O)N1CCC(CNc2ncnc(N)c2-c2ccc(Oc3ccccc3)cc2)CC1 [Evobrutinib, 1-(4-(((6-amino-5-(4-phenoxyphenyl)pyrimidin-4-yl)amino)methyl)piperidin-1-yl)prop-2-en-1-one]
[1]; Part 1
  Severity of TEAEs: mild (Grade 1) except in one subject in the 200 mg treatment group
[1]; Part 1, all evobrutinib doses
  Subjects with contact dermatitis at locations of ECG pads: 5.6%
  Subjects with headache: 5.6%
[1]; Part 1, one subject in the 200 mg treatment group
  Dose-limiting TEAE: Grade 4 increased lipase in combination with Grade 3 increased amylase
[1]; Part 1, pooled active
  Abdominal pain, subjects: 0 (0.0) n (%)
  Amylase increased, number of TEAEs: [1]
  Amylase increased, subjects: 1 (2.8) n (%)
  Application site pruritus (due to ECG stickers), subjects: 0 (0.0) n (%)
  Back pain, number of TEAEs: [1]
  Back pain, subjects: 1 (2.8) n (%)
  Contact dermatitis, number of TEAEs: [2]
  Contact dermatitis, subjects: 2 (5.6) n (%)
  Dizziness, number of TEAEs: [1]
  Dizziness, subjects: 1 (2.8) n (%)
  Dry eye, number of TEAEs: [1]
  Dry eye, subjects: 1 (2.8) n (%)
  Dry mouth, subjects: 0 (0.0) n (%)
  Dyspepsia, number of TEAEs: [1]
  Dyspepsia, subjects: 1 (2.8) n (%)
  Excoriation, number of TEAEs: [1]
  Excoriation, subjects: 1 (2.8) n (%)
  Headache, number of TEAEs: [3]
  Headache, subjects: 2 (5.6) n (%)
  Lipase increased, number of TEAEs: [1]
  Lipase increased, subjects: 1 (2.8) n (%)
  Multiple injuries, number of TEAEs: [1]
  Multiple injuries, subjects: 1 (2.8) n (%)
  Nasal congestion, number of TEAEs: [1]
  Nasal congestion, subjects: 1 (2.8) n (%)
  Noncardiac chest pain, subjects: 0 (0.0) n (%)
  Odynophagia, number of TEAEs: [1]
  Odynophagia, subjects: 1 (2.8) n (%)
  Overall total TEAEs, subjects: 9 (25.5) n (%)
  Overall total, number of TEAEs: [15]
  Upper respiratory tract infection, subjects: 0 (0.0) n (%)
[1]; [3]
  Contact dermatitis, number of TEAEs: two
  Headache, number of TEAEs: three
  Overall total, number of TEAEs: 15
[1]; Part 1, single dose 25 mg
  Abdominal pain, subjects: 0 (0.0) n (%)
  Amylase increased, subjects: 0 (0.0) n (%)
  Application site pruritus (due to ECG stickers), subjects: 0 (0.0) n (%)
  Back pain, subjects: 0 (0.0) n (%)
  Contact dermatitis, subjects: 0 (0.0) n (%)
  Dizziness, subjects: 0 (0.0) n (%)
  Dry eye, subjects: 0 (0.0) n (%)
  Dry mouth, subjects: 0 (0.0) n (%)
  Dyspepsia, subjects: 0 (0.0) n (%)
  Excoriation, subjects: 0 (0.0) n (%)
  Headache, subjects: 0 (0.0) n (%)
  Lipase increased, subjects: 0 (0.0) n (%)
  Multiple injuries, subjects: 0 (0.0) n (%)
  Nasal congestion, subjects: 0 (0.0) n (%)
  Noncardiac chest pain, subjects: 0 (0.0) n (%)
  Odynophagia, subjects: 0 (0.0) n (%)
  Overall total TEAEs, subjects: 0 (0.0) n (%)
  Upper respiratory tract infection, subjects: 0 (0.0) n (%)
[1]; Part 1, single dose 50 mg
  Abdominal pain, subjects: 0 (0.0) n (%)
  Amylase increased, subjects: 0 (0.0) n (%)
  Application site pruritus (due to ECG stickers), subjects: 0 (0.0) n (%)
  Back pain, number of TEAEs: [1]
  Back pain, subjects: 1 (16.7) n (%)
  Contact dermatitis, number of TEAEs: [2]
  Contact dermatitis, subjects: 2 (33.3) n (%)
  Dizziness, subjects: 0 (0.0) n (%)
  Dry eye, subjects: 0 (0.0) n (%)
  Dry mouth, subjects: 0 (0.0) n (%)
  Dyspepsia, number of TEAEs: [1]
  Dyspepsia, subjects: 1 (16.7) n (%)
  Excoriation, subjects: 0 (0.0) n (%)
  Headache, number of TEAEs: [2]
  Headache, subjects: 1 (16.7) n (%)
  Lipase increased, subjects: 0 (0.0) n (%)
  Multiple injuries, subjects: 0 (0.0) n (%)
  Nasal congestion, subjects: 0 (0.0) n (%)
  Noncardiac chest pain, subjects: 0 (0.0) n (%)
  Odynophagia, subjects: 0 (0.0) n (%)
  Overall total TEAEs, subjects: 3 (50.0) n (%)
  Overall total, number of TEAEs: [6]
  Upper respiratory tract infection, subjects: 0 (0.0) n (%)
[1]; Part 1, single dose 100 mg
  Abdominal pain, subjects: 0 (0.0) n (%)
  Amylase increased, subjects: 0 (0.0) n (%)
  Application site pruritus (due to ECG stickers), subjects: 0 (0.0) n (%)
  Back pain, subjects: 0 (0.0) n (%)
  Contact dermatitis, subjects: 0 (0.0) n (%)
  Dizziness, subjects: 0 (0.0) n (%)
  Dry eye, subjects: 0 (0.0) n (%)
  Dry mouth, subjects: 0 (0.0) n (%)
  Dyspepsia, subjects: 0 (0.0) n (%)
  Excoriation, subjects: 0 (0.0) n (%)
  Headache, subjects: 0 (0.0) n (%)
  Lipase increased, subjects: 0 (0.0) n (%)
  Multiple injuries, subjects: 0 (0.0) n (%)
  Nasal congestion, number of TEAEs: [1]
  Nasal congestion, subjects: 1 (16.7) n (%)
  Noncardiac chest pain, subjects: 0 (0.0) n (%)
  Odynophagia, subjects: 0 (0.0) n (%)
  Overall total TEAEs, subjects: 1 (16.7) n (%)
  Overall total, number of TEAEs: [1]
  Upper respiratory tract infection, subjects: 0 (0.0) n (%)
[1]; Part 1, single dose 200 mg
  Abdominal pain, subjects: 0 (0.0) n (%)
  Amylase increased, number of TEAEs: [1]
  Amylase increased, subjects: 1 (16.7) n (%)
  Application site pruritus (due to ECG stickers), subjects: 0 (0.0) n (%)
  Back pain, subjects: 0 (0.0) n (%)
  Contact dermatitis, subjects: 0 (0.0) n (%)
  Dizziness, number of TEAEs: [1]
  Dizziness, subjects: 1 (16.7) n (%)
  Dry eye, subjects: 0 (0.0) n (%)
  Dry mouth, subjects: 0 (0.0) n (%)
  Dyspepsia, subjects: 0 (0.0) n (%)
  Excoriation, number of TEAEs: [1]
  Excoriation, subjects: 1 (16.7) n (%)
  Headache, subjects: 0 (0.0) n (%)
  Lipase increased, number of TEAEs: [1]
  Lipase increased, subjects: 1 (16.7) n (%)
  Multiple injuries, subjects: 0 (0.0) n (%)
  Nasal congestion, subjects: 0 (0.0) n (%)
  Noncardiac chest pain, subjects: 0 (0.0) n (%)
  Odynophagia, subjects: 0 (0.0) n (%)
  Overall total TEAEs, subjects: 2 (33.3) n (%)
  Overall total, number of TEAEs: [4]
  Upper respiratory tract infection, subjects: 0 (0.0) n (%)
[1]; Part 1, single dose 350 mg
  Abdominal pain, subjects: 0 (0.0) n (%)
  Amylase increased, subjects: 0 (0.0) n (%)
  Application site pruritus (due to ECG stickers), subjects: 0 (0.0) n (%)
  Back pain, subjects: 0 (0.0) n (%)
  Contact dermatitis, subjects: 0 (0.0) n (%)
  Dizziness, subjects: 0 (0.0) n (%)
  Dry eye, subjects: 0 (0.0) n (%)
  Dry mouth, subjects: 0 (0.0) n (%)
  Dyspepsia, subjects: 0 (0.0) n (%)
  Excoriation, subjects: 0 (0.0) n (%)
  Headache, subjects: 0 (0.0) n (%)
  Lipase increased, subjects: 0 (0.0) n (%)
  Multiple injuries, number of TEAEs: [1]
  Multiple injuries, subjects: 1 (16.7) n (%)
  Nasal congestion, subjects: 0 (0.0) n (%)
  Noncardiac chest pain, subjects: 0 (0.0) n (%)
  Odynophagia, subjects: 0 (0.0) n (%)
  Overall total TEAEs, subjects: 1 (16.7) n (%)
  Overall total, number of TEAEs: [1]
  Upper respiratory tract infection, subjects: 0 (0.0) n (%)
[1]; Part 1, single dose 500 mg
  Abdominal pain, subjects: 0 (0.0) n (%)
  Amylase increased, subjects: 0 (0.0) n (%)
  Application site pruritus (due to ECG stickers), subjects: 0 (0.0) n (%)
  Back pain, subjects: 0 (0.0) n (%)
  Contact dermatitis, subjects: 0 (0.0) n (%)
  Dizziness, subjects: 0 (0.0) n (%)
  Dry eye, number of TEAEs: [1]
  Dry eye, subjects: 1 (16.7) n (%)
  Dry mouth, subjects: 0 (0.0) n (%)
  Dyspepsia, subjects: 0 (0.0) n (%)
  Excoriation, subjects: 0 (0.0) n (%)
  Headache, number of TEAEs: [2]
  Headache, subjects: 1 (16.7) n (%)
  Lipase increased, subjects: 0 (0.0) n (%)
  Multiple injuries, subjects: 0 (0.0) n (%)
  Nasal congestion, subjects: 0 (0.0) n (%)
  Noncardiac chest pain, subjects: 0 (0.0) n (%)
  Odynophagia, number of TEAEs: [1]
  Odynophagia, subjects: 1 (16.7) n (%)
  Overall total TEAEs, subjects: 2 (33.3) n (%)
  Overall total, number of TEAEs: [3]
  Upper respiratory tract infection, subjects: 0 (0.0) n (%)
[1]; Part 1, single dosing, all evobrutinib doses
  Subjects with TEAEs: 25%
[1]; either part of the study
  TEAEs leading to discontinuation; trends in vital signs, ECGs, laboratory values, IgG subclasses: no TEAEs leading to discontinuation and no clinically significant trends in vital signs, ECGs, laboratory values or immunoglobulin G (IgG) subclasses
[1]; one subject, 350 mg single ascending dose cohort, 7 days after administration
  SAE of multi-trauma due to an automobile accident, relation to study drug: unrelated to the study drug
[1]; single and multiple dosing (Parts 1 and 2)
  Deaths or serious adverse events (SAEs) related to treatment: no deaths or serious adverse events (SAEs) related to treatment
[1]
  Overall safety and tolerability: well tolerated
[1]; listed as evobrutinib
  Overall safety and tolerability: safe and well tolerated and no non-tolerated dose could be defined; also recorded: safe and well tolerated
[2]
  BCR- and FcR-mediated signalling: potently inhibit
